The record followed here is ChEMBL document CHEMBL5385930, “Synthesis, Structure-Activity Relationship Study, Bioactivity, and Nephrotoxicity Evaluation of the Proposed Structure of the Cyclic Lipodepsipeptide Brevicidine B” (J Nat Prod, 2024).

In brackets after ≈: the same amount, converted by molar mass. Positions of bridges follow the written chain, without caps; N, C: chain ends. Non-standard residues stand in square brackets, D forms with d. Residues, ends and D or L forms follow the SMILES beside them. ξ: configuration not given here. *: point of attachment. Hexanoyl(4ξ-Me) = CCC(C)CCC(=O)*; dOrn = NCCC[C@@H](N)C(=O)O; Orn = NCCC[C@H](N)C(=O)O A value given as a limit tells only on which side of the number the result lay.

Series [1] is described as follows: Nephrotoxicity in human Kidney organoid assessed as deterioration of renal tubule measured after 48 hrs by bright field imaging analysis. Particulars: dose 100-1000 µM. The series is classed as toxicity, tissue-based.
Series [2] in a line: Nephrotoxicity in human Kidney organoid assessed as at 300 uM measured after 48 hrs by bright field imaging analysis. The series is classed as toxicity, tissue-based.
The test system of series [3] is Staphylococcus aureus. Kind of series: Antibacterial activity against methicillin-resistant Staphylococcus aureus RA120 assessed as reduction in bacterial growth by microbroth dilution assay. The series is classed as functional. On the technique in general: Broth dilution looks for growth in wells or tubes with falling amounts of substance.
A short description of series [4]: Nephrotoxicity in human Kidney organoid assessed as at 100 uM measured after 48 hrs by bright field imaging analysis. The series is classed as toxicity, tissue-based.
Series [5] deals with Klebsiella pneumoniae. Kind of series: Antibacterial activity against Klebsiella pneumoniae ATCC 33495 assessed as reduction in bacterial growth by microbroth dilution assay. The series is classed as functional.
The subject of series [6] is Acinetobacter baumannii. Kind of series: Antibacterial activity against Acinetobacter baumannii ATCC 19606 assessed as reduction in bacterial growth by microbroth dilution assay. The series is classed as functional.
In series [7] the test system is Staphylococcus aureus. Kind of series: Antibacterial activity against Staphylococcus aureus ATCC 25923 assessed as reduction in bacterial growth by microbroth dilution assay. The series is classed as functional.
Series [8] deals with Klebsiella pneumoniae. Kind of series: Antibacterial activity against Klebsiella pneumoniae ATCC 700603 assessed as reduction in bacterial growth by microbroth dilution assay. The series is classed as functional.
Series [9] deals with Staphylococcus aureus. Kind of series: Antibacterial activity against methicillin-resistant Staphylococcus aureus NCTC1044 assessed as reduction in bacterial growth by microbroth dilution assay. The series is classed as functional.
In series [10] the test system is Staphylococcus aureus. Kind of series: Antibacterial activity against methicillin-resistant Staphylococcus aureus EMRSA-15 assessed as reduction in bacterial growth by microbroth dilution assay. The series is classed as functional.
The subject of series [11] is Escherichia coli. The series can be described thus: Antibacterial activity against Escherichia coli ATCC 25922 assessed as reduction in bacterial growth by microbroth dilution assay. The series is classed as functional.
Series [12] concerns Klebsiella pneumoniae. Kind of series: Antibacterial activity against pandrug-resistant Klebsiella pneumoniae MS6671 assessed as reduction in bacterial growth by microbroth dilution assay. The series is classed as functional.
Series [13] has as its system Staphylococcus aureus. The series can be described thus: Antibacterial activity against methicillin-resistant Staphylococcus aureus […] assessed as reduction in bacterial growth by microbroth dilution assay. The series is classed as functional.
The next series has as its system Enterococcus faecalis. The series can be described thus: Antibacterial activity against vancomycin resistant Enterococcus faecalis V583 assessed as reduction in bacterial growth by microbroth dilution assay. The series is classed as functional.
For the next series, the system named is Pseudomonas aeruginosa. The series can be described thus: Antibacterial activity against Pseudomonas aeruginosa ATCC 27853 assessed as reduction in bacterial growth by microbroth dilution assay. The series is classed as functional.
Series [14] deals with Escherichia coli. The series can be described thus: Antibacterial activity against multidrug resistant Escherichia coli MS834 harbouring mcr-1 assessed as reduction in bacterial growth by microbroth dilution assay. The series is classed as functional.
The test system of series [15] is Acinetobacter baumannii. The series can be described thus: Antibacterial activity against multidrug resistant Acinetobacter baumannii AB5075 assessed as reduction in bacterial growth by microbroth dilution assay. The series is classed as functional.

As to POLYMYXIN B, the Activity result in series [1] was “Dose-Dependent Effect”; in [2], “Toxic”.
For orientation: MIC means the least concentration at which growth counts as inhibited. For the compound `CCC(C)CCC(=O)N[C@H](CC(N)=O)C(=O)N[C@H](Cc1ccccc1)C(=O)N[C@H](Cc1c[nH]c2ccccc12)C(=O)N[C@H](CCCN)C(=O)N[C@@H](CCCN)C(=O)NCC(=O)N[C@H](CCCN)C(=O)N[C@@H](Cc1c[nH]c2ccccc12)C(=O)N[C@@H]1C(=O)N[C@@H]([C@@H](C)CC)C(=O)NCC(=O)N[C@@H](CO)C(=O)O[C@@H]1C` (stereo partly specified), the minimal inhibitory concentration (MIC) was greater than 32 µg/mL in the series with Staphylococcus aureus [3]; 4 µg/mL (≈ 2.66 µM) with Klebsiella pneumoniae [5]; 16 µg/mL (≈ 10.6 µM) in the series on Acinetobacter baumannii [6]; greater than 32 µg/mL in the series with Staphylococcus aureus [7]; 16 µg/mL (≈ 10.6 µM) in the series on Klebsiella pneumoniae [8]; greater than 32 µg/mL in the series on Staphylococcus aureus [9]. Moreover, the MIC with Staphylococcus aureus [10] is greater than 32 µg/mL; in the series with Escherichia coli [11], 4 µg/mL (≈ 2.66 µM); in the series on Klebsiella pneumoniae [12], 32 µg/mL (≈ 21.3 µM); in the series on Staphylococcus aureus [13], greater than 32 µg/mL; with Enterococcus faecalis, greater than 32 µg/mL; in the series with Pseudomonas aeruginosa, 8 µg/mL (≈ 5.32 µM). Further, the values for the MIC in the series with Escherichia coli [14] and in the series on Acinetobacter baumannii [15] were 8 µg/mL (≈ 5.32 µM) and 16 µg/mL (≈ 10.6 µM), respectively. Further, the results for the Activity result in [4], in series [1] and in series [2] were “Non-Toxic”, “Dose-Dependent Effect” and “Toxic”, respectively.
In the case of `CCC(C)CCC(=O)N[C@H](CC(N)=O)C(=O)N[C@H](Cc1ccc(O)cc1)C(=O)N[C@H](Cc1c[nH]c2ccccc12)C(=O)N[C@H](CCCN)C(=O)N[C@@H](CCCN)C(=O)NCC(=O)N[C@H](CCCN)C(=O)N[C@@H](Cc1c[nH]c2ccccc12)C(=O)N[C@@H]1C(=O)N[C@@H]([C@@H](C)CC)C(=O)NCC(=O)N[C@@H](CO)C(=O)O[C@@H]1C` (stereo partly specified) ({Hexanoyl(4ξ-Me)}-[dN][dY][dW][dOrn][Orn]G[dOrn]WTIGS; ester 9-C), the Activity result in [4] is “Non-Toxic”; in [1] it was “Dose-Dependent Effect”; in series [2], “Toxic”. Besides, the MIC in the series on Klebsiella pneumoniae [5] is 2 µg/mL (≈ 1.32 µM); with Acinetobacter baumannii [6] it was 16 µg/mL (≈ 10.5 µM); in the series with Staphylococcus aureus [7], greater than 32 µg/mL; with Klebsiella pneumoniae [8], 8 µg/mL (≈ 5.26 µM); with Escherichia coli [11], 4 µg/mL (≈ 2.63 µM); in the series with Klebsiella pneumoniae [12], 16 µg/mL (≈ 10.5 µM). For the same compound, the MIC in the series with Staphylococcus aureus [13] was greater than 32 µg/mL; in the series with Enterococcus faecalis, greater than 32 µg/mL; in the series with Pseudomonas aeruginosa, 4 µg/mL (≈ 2.63 µM); with Escherichia coli [14] it was 4 µg/mL (≈ 2.63 µM); in the series with Acinetobacter baumannii [15], 16 µg/mL (≈ 10.5 µM).
`Cc1onc(-c2ccccc2)c1C(=O)N[C@@H]1C(=O)N2[C@@H]1SC(C)(C)[C@@H]2C(=O)O` [OXACILLIN]: the MIC in the series on Staphylococcus aureus [3] came to 64 µg/mL (≈ 159 µM); with Staphylococcus aureus [9], 64 µg/mL (≈ 159 µM); in the series on Staphylococcus aureus [10], 64 µg/mL (≈ 159 µM); in the series on Staphylococcus aureus [13], 128 µg/mL (≈ 319 µM).
Turning to `CCC(C)CCC(=O)N[C@H](CC(N)=O)C(=O)N[C@@H](Cc1ccccc1)C(=O)N[C@H](Cc1c[nH]c2ccccc12)C(=O)N[C@H](CCCN)C(=O)N[C@@H](CCCN)C(=O)NCC(=O)N[C@H](CCCN)C(=O)N[C@@H](Cc1c[nH]c2ccccc12)C(=O)N[C@@H]1C(=O)N[C@@H]([C@@H](C)CC)C(=O)NCC(=O)N[C@@H](CO)C(=O)O[C@@H]1C` (stereo partly specified), the MIC in the series on Klebsiella pneumoniae [5], in the series with Acinetobacter baumannii [6], in the series on Staphylococcus aureus [7], with Klebsiella pneumoniae [8], in the series with Escherichia coli [11] and in the series with Klebsiella pneumoniae [12] was greater than 32 µg/mL in each case. Further, the MIC with Staphylococcus aureus [13], in the series on Enterococcus faecalis, in the series on Pseudomonas aeruginosa, in the series with Escherichia coli [14] and in the series with Acinetobacter baumannii [15] was greater than 32 µg/mL throughout.
Turning to `CCC(C)CCC(=O)N[C@H](CC(N)=O)C(=O)N[C@H](Cc1c[nH]cn1)C(=O)N[C@H](Cc1c[nH]c2ccccc12)C(=O)N[C@H](CCCN)C(=O)N[C@@H](CCCN)C(=O)NCC(=O)N[C@H](CCCN)C(=O)N[C@@H](Cc1c[nH]c2ccccc12)C(=O)N[C@@H]1C(=O)N[C@@H]([C@@H](C)CC)C(=O)NCC(=O)N[C@@H](CO)C(=O)O[C@@H]1C` (stereo partly specified), the MIC in the series with Klebsiella pneumoniae [5], in the series on Acinetobacter baumannii [6], in the series with Staphylococcus aureus [7], in the series with Klebsiella pneumoniae [8], in the series on Escherichia coli [11] and with Klebsiella pneumoniae [12] was greater than 32 µg/mL throughout. The MIC in the series on Staphylococcus aureus [13], in the series on Enterococcus faecalis, with Pseudomonas aeruginosa, in the series on Escherichia coli [14] and in the series with Acinetobacter baumannii [15] was greater than 32 µg/mL in each case.
With `CCC(C)CCC(=O)N[C@H](CC(N)=O)C(=O)N[C@H](C(=O)N[C@H](Cc1c[nH]c2ccccc12)C(=O)N[C@H](CCCN)C(=O)N[C@@H](CCCN)C(=O)NCC(=O)N[C@H](CCCN)C(=O)N[C@@H](Cc1c[nH]c2ccccc12)C(=O)N[C@@H]1C(=O)N[C@@H]([C@@H](C)CC)C(=O)NCC(=O)N[C@@H](CO)C(=O)O[C@@H]1C)C(c1ccccc1)c1ccccc1` (stereo partly specified), the MIC in the series with Klebsiella pneumoniae [5] was 32 µg/mL (≈ 20.3 µM); with Acinetobacter baumannii [6], 32 µg/mL (≈ 20.3 µM); in the series with Staphylococcus aureus [7], greater than 32 µg/mL; with Klebsiella pneumoniae [8], greater than 32 µg/mL; with Escherichia coli [11] it was 32 µg/mL (≈ 20.3 µM); with Klebsiella pneumoniae [12], greater than 32 µg/mL. Moreover, the MIC was greater than 32 µg/mL in the series with Staphylococcus aureus [13]; greater than 32 µg/mL in the series with Enterococcus faecalis; greater than 32 µg/mL with Pseudomonas aeruginosa; 16 µg/mL (≈ 10.1 µM) with Escherichia coli [14]; 32 µg/mL (≈ 20.3 µM) with Acinetobacter baumannii [15].
For `CC1(C)S[C@@H]2[C@H](NC(=O)[C@H](N)c3ccc(O)cc3)C(=O)N2[C@H]1C(=O)O` [AMOXICILLIN], the MIC in the series with Staphylococcus aureus [3] is greater than 32 µg/mL; with Staphylococcus aureus [7], 0.25 µg/mL (≈ 0.684 µM); in the series with Staphylococcus aureus [9], 32 µg/mL (≈ 87.6 µM); in the series with Staphylococcus aureus [10], greater than 32 µg/mL; in the series with Staphylococcus aureus [13] it was greater than 32 µg/mL; in the series on Enterococcus faecalis, 0.5 µg/mL (≈ 1.37 µM).
